Measured values from patent US12370235B2, “Synthetic, non-natural antimicrobial peptides inspired by Staphylococcus auricularis delta toxin” (University of Saskatchewan, priority 2021, dated 2025).
Ends that are not written are not given here.

What was measured:
[1] = test system: S. aureus ATCC 29213; assay: MIC, broth dilution; type: cell-based, Staphylococcus aureus; conditions: Table 5; STIP3 variants, highest concentration 100 μg/mL
Procedure, shortened: (§1)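 Peptides (95% purity) were serially diluted 2-fold and mixed with bacteria diluted to OD 6×10^−4 in cation-adjusted Mueller Hinton broth. Standing cultures were incubated overnight at 37° C. MIC was the lowest peptide concentration with no observed growth.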

[2] = test system: S. aureus ATCC 33592 (MRSA SCCmec type III); assay: MIC, broth dilution; type: cell-based, Staphylococcus aureus; conditions: Table 5; STIP3 variants, highest concentration 100 μg/mL
Procedure, shortened: as §1

[3] = test system: S. aureus ATCC BAA-1683 (MRSA SCCmec type IV); assay: MIC, broth dilution; type: cell-based, Staphylococcus aureus; conditions: Table 5; STIP3 variants, highest concentration 100 μg/mL
Procedure, shortened: as §1

[4] = test system: S. aureus ATCC BAA-2094 (MRSA SCCmec type V); assay: MIC, broth dilution; type: cell-based, Staphylococcus aureus; conditions: Table 5; STIP3 variants, highest concentration 100 μg/mL
Procedure, shortened: as §1

[5] = test system: S. aureus ATCC BAA-2313 (MRSA SCCmec type XI); assay: MIC, broth dilution; type: cell-based, Staphylococcus aureus; conditions: Table 5; STIP3 variants, highest concentration 100 μg/mL
Procedure, shortened: as §1

[6] = test system: S. aureus ATCC BAA-41 (MRSA SCCmec type II); assay: MIC, broth dilution; type: cell-based, Staphylococcus aureus; conditions: Table 5; STIP3 variants, highest concentration 100 μg/mL
Procedure, shortened: as §1

[7] = test system: S. aureus ATCC BAA-42 (MRSA SCCmec type VI); assay: MIC, broth dilution; type: cell-based, Staphylococcus aureus; conditions: Table 5; STIP3 variants, highest concentration 100 μg/mL
Procedure, shortened: as §1

[8] = test system: S. aureus ATCC BAA-44 (MRSA SCCmec type I); assay: MIC, broth dilution; type: cell-based, Staphylococcus aureus; conditions: Table 5; STIP3 variants, highest concentration 100 μg/mL
Procedure, shortened: as §1

[9] = test system: Mannheimia haemolytica ATCC 33393; assay: MIC, broth dilution; type: cell-based; conditions: Table 11; highest concentration 25 μg/mL
Procedure, shortened: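 Read-out is the lowest peptide concentration showing no growth after an overnight standing culture at 37 °C. Two-fold serial dilutions of 95%-pure peptide were tested against M. haemolytica ATCC 33393 at OD 6×10^−4 in cation-adjusted MH broth.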

[10] = test system: C. albicans MYA-2876; assay: MIC, YPD broth; type: cell-based, Candida albicans; conditions: Table 8
Procedure, shortened: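 Yeast cells were diluted in YPD broth, and 180 μl aliquots were mixed with 20 μl of peptide from 2-fold serial dilutions in flat-bottom 96-well microtitre plates. Wells receiving 20 μl sterile water served as controls. After standing incubation overnight at 37° C, the MIC was taken as the lowest peptide concentration with no visible microbial growth.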

[11] = test system: Candida duobushaemulonii AR 391; assay: MIC, YPD broth, CDC and FDA AR Candida isolate panel; type: cell-based; conditions: Table 9 below the line: only 200 or 100 μg/mL tested; values reported as 100 are ≤100 μg/mL
Procedure, shortened: (§2)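 Peptides of 95% purity were tested as 2-fold dilution series against yeast diluted to an optical density of […]. Cultures stood overnight at 37° C, with sterile water as control.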

[12] = test system: Candida duobushaemulonii AR 392; assay: as above; type: cell-based; conditions: Table 9 below the line: only 200 or 100 μg/mL tested; values reported as 100 are ≤100 μg/mL
Procedure, shortened: as §2

[13] = test system: Candida duobushaemulonii AR 394; assay: as above; type: cell-based; conditions: Table 9 below the line: only 200 or 100 μg/mL tested; values reported as 100 are ≤100 μg/mL
Procedure, shortened: as §2

[14] = test system: Candida haemulonii AR 393; assay: as above; type: cell-based; conditions: Table 9 below the line: only 200 or 100 μg/mL tested; values reported as 100 are ≤100 μg/mL
Procedure, shortened: as §2

[15] = test system: Candida haemulonii AR 395; assay: as above; type: cell-based; conditions: Table 9 below the line: only 200 or 100 μg/mL tested; values reported as 100 are ≤100 μg/mL
Procedure, shortened: as §2

[16] = test system: Candida krusei AR 397; assay: as above; type: cell-based; conditions: Table 9 below the line: only 200 or 100 μg/mL tested; values reported as 100 are ≤100 μg/mL
Procedure, shortened: as §2

[17] = test system: Candida lusitaniae AR 398; assay: as above; type: cell-based; conditions: Table 9 below the line: only 200 or 100 μg/mL tested; values reported as 100 are ≤100 μg/mL
Procedure, shortened: as §2

[18] = test system: Kodamae ohmeri AR 396; assay: as above; type: cell-based; conditions: Table 9 below the line: only 200 or 100 μg/mL tested; values reported as 100 are ≤100 μg/mL
Procedure, shortened: as §2

[19] = test system: Saccharomyces cerevisiae AR 399; assay: as above; type: cell-based; conditions: Table 9 below the line: only 200 or 100 μg/mL tested; values reported as 100 are ≤100 μg/mL
Procedure, shortened: as §2

[20] = test system: Saccharomyces cerevisiae AR 400; assay: as above; type: cell-based; conditions: Table 9 below the line: only 200 or 100 μg/mL tested; values reported as 100 are ≤100 μg/mL
Procedure, shortened: as §2

Sequence	MIC S. aureus ATCC 29213 [1]	MIC S. aureus ATCC 33592 (III) [2]	MIC S. aureus ATCC BAA 1683 (IV) [3]	MIC S. aureus ATCC BAA 2094 (V) [4]	MIC S. aureus ATCC BAA 2313 (XI) [5]	MIC S. aureus ATCC BAA 41 (II) [6]	MIC S. aureus ATCC BAA 42 (VI) [7]	MIC S. aureus ATCC BAA 44 (I) [8]	MIC (μg/mL) M. haemolytica [9]	MIC C. albicans MYA-2876 [10]	MIC (μg/mL) Candida duobushaemulonii AR 391 [11]	MIC (μg/mL) Candida duobushaemulonii AR 392 [12]	MIC (μg/mL) Candida duobushaemulonii AR 394 [13]	MIC (μg/mL) Candida haemulonii AR 393 [14]	MIC (μg/mL) Candida haemulonii AR 395 [15]	MIC (μg/mL) Candida krusei AR 397 [16]	MIC (μg/mL) Candida lusitaniae AR 398 [17]	MIC (μg/mL) Kodamae ohmeri AR 396 [18]	MIC (μg/mL) Saccharomyces cerevisiae AR 399 [19]	MIC (μg/mL) Saccharomyces cerevisiae AR 400 [20]
TVGGLVKWILDWVKKFA [STIP3-10, TVGGLVKWILDWVKKFA]	100 µg/mL	100 µg/mL	> (no inhibition was observed at the highest concentration of peptide tested: 100 μg/mL for the STIP3 variants)	100 µg/mL	50 µg/mL	100 µg/mL	25 µg/mL	200 µg/mL	> (> symbol indicates that no inhibition was observed at the highest concentration of peptide tested: 25 μg/mL)	50 µg/mL	> (values below the line were determined using two concentrations of peptide 200 or 100 μg/mL)	> (values below the line were determined using two concentrations of peptide 200 or 100 μg/mL)	> (values below the line were determined using two concentrations of peptide 200 or 100 μg/mL)	> (values below the line were determined using two concentrations of peptide 200 or 100 μg/mL)	> (values below the line were determined using two concentrations of peptide 200 or 100 μg/mL)	> (values below the line were determined using two concentrations of peptide 200 or 100 μg/mL)	> (values below the line were determined using two concentrations of peptide 200 or 100 μg/mL)	> (values below the line were determined using two concentrations of peptide 200 or 100 μg/mL)	> (values below the line were determined using two concentrations of peptide 200 or 100 μg/mL)	≤ 100 µg/mL
TVGGLVKWILKAVKKFA [STIP3-13, TVGGLVKWILKAVKKFA]	25 µg/mL	25 µg/mL	25 µg/mL	25 µg/mL	25 µg/mL	12.5 µg/mL	25 µg/mL	25 µg/mL	12.5 µg/mL	50 µg/mL	≤ 100 µg/mL	≤ 100 µg/mL	≤ 100 µg/mL	> (values below the line were determined using two concentrations of peptide 200 or 100 μg/mL)	> (values below the line were determined using two concentrations of peptide 200 or 100 μg/mL)	≤ 100 µg/mL	≤ 100 µg/mL	> (values below the line were determined using two concentrations of peptide 200 or 100 μg/mL)	≤ 100 µg/mL	≤ 100 µg/mL
TVGGLVKWILNTVKKFA [STIP3-4, TVGGLVKWILNTVKKFA]	100 µg/mL	50 µg/mL	100 µg/mL	50 µg/mL	100 µg/mL	50 µg/mL	50 µg/mL	50 µg/mL	25 µg/mL	12.5 µg/mL	> (values below the line were determined using two concentrations of peptide 200 or 100 μg/mL)	> (values below the line were determined using two concentrations of peptide 200 or 100 μg/mL)	> (values below the line were determined using two concentrations of peptide 200 or 100 μg/mL)	> (values below the line were determined using two concentrations of peptide 200 or 100 μg/mL)	> (values below the line were determined using two concentrations of peptide 200 or 100 μg/mL)	≤ 100 µg/mL	≤ 100 µg/mL	> (values below the line were determined using two concentrations of peptide 200 or 100 μg/mL)	≤ 100 µg/mL	≤ 100 µg/mL
TVGVLVKWILDTVKKFA [STIP3-8, TVGVLVKWILDTVKKFA]	100 µg/mL	100 µg/mL	> (no inhibition was observed at the highest concentration of peptide tested: 100 μg/mL for the STIP3 variants)	100 µg/mL	100 µg/mL	100 µg/mL	100 µg/mL	100 µg/mL	> (> symbol indicates that no inhibition was observed at the highest concentration of peptide tested: 25 μg/mL)	> (> symbol indicates that no inhibition was observed at the highest concentration of peptide tested: 100 μg/mL)	> (values below the line were determined using two concentrations of peptide 200 or 100 μg/mL)	> (values below the line were determined using two concentrations of peptide 200 or 100 μg/mL)	> (values below the line were determined using two concentrations of peptide 200 or 100 μg/mL)	> (values below the line were determined using two concentrations of peptide 200 or 100 μg/mL)	> (values below the line were determined using two concentrations of peptide 200 or 100 μg/mL)	≤ 100 µg/mL	180 µg/mL	> (values below the line were determined using two concentrations of peptide 200 or 100 μg/mL)	≤ 100 µg/mL	≤ 100 µg/mL
